Source: patent US8329902B2, “Optically pure dihydropyrimidine compounds and their uses for the preparation of a medicament for treatment and prevention of viral diseases” (Beijing Molecule Science And Technology Co., Ltd., priority 2006, dated 2012)
Each block holds one molecule with its values, some of them ahead of it.

Key:
HBV DNA = assay: Antiviral activity: inhibition of HBV DNA in supernatant of HepG 2.2.15 cells (dot blot hybridization); type: cell-based; settings: Hepatitis B virus, HepG2.2.15, 192 h, 8 days incubation, 50% reduction of type B hepatitis-specific DNA band
Method: The antiviral effection of the compound of the present invention is determined according to the methods described by Sells, et al in (M. A. Sells M. L. Chen G. Proc. Natl. Acad. Sci. 1987, 84, 1005-1009) and Korba, et al (B. E. Korba, J. L. Gerin Antiviral Research 1992, 19, 55-70).
(§1) The antiviral test was carried out in a 96-cell microtiter plate. The first column of the plate only contained a culture medium for growth and HepG 2.2.15 cells, as a control. First, a stock solution (50 mmol) of a test compound was dissolved in DMSO, and further diluted with a culture medium for growth for HepG 2.2.15 cells. Usually, the compound of the present invention was transferred by suction at a test concentration of 100 μg/ml (the first test concentration) to each cell of the second column of the microtiter plate, and then diluted with the culture medium for growth plus 2% fetal bovine serum (25 μL), by 2 times once, up to […] at the maximum.
(§2) Then, 225 μL of a suspension of HepG 2.2.15 cells (5×10^4 cells/ml) in the culture medium fro growth plus 2% fetal bovine serum was added to each pore of the 96-cell microtiter plate.
(§3) The test mixture was incubated under the conditions of 37° C., 5% CO2 for 4 days. Then, the supernatant was removed by suction, and to each pore 225 μL of a new-prepared culture medium was added. Again, the compound of the present invention was added by a solution of 25 μL. The obtained mixture was further incubated for 4 days.
Thereafter, the supernatant was collected, and sucked in vacuum to a 96-cell dot blot chamber covered by nylon film (used in accordance with the directions for use given by the manufacturer).
After the supernatant was transferred onto the nylon film of the dot blot device (as described above), the supernatant of HepG 2.2.15 cells was denaturated (1.5 M NaCl/0.5 M NaOH), neutralized (3 M NaCl/0.5 M Tris. HCl, pH 7.5) and washed (2×SSC). Then, the filter film was kept at 120° C. for 2-4 hours, whereby DNA was baked on the filter film.
Usually, viral DNA of HepG 2.2.15 cells treated on the nylon filter film was detected by using a non-radioactive digoxigenin labelled type B hepatitis-specific DNA probe. Wherein, each time the probe was labelled with digoxigenin, purified and hybridized according to the directions for use given by the manufacturer.
Briefly, pre-hybridization and hybridization were conducted with 5×SSC, 1× blocking agent, 0.1% N-lauroyl sarcosine, 0.02% SDS and 100 μg sperm DNA of black carp. After pre-hybridization at 60° C. for 30 min, a specific hybridization (at 60° C. for 14 hr) was conducted with 20-40 ng/ml digoxigenin labelled denaturated I-BV specific DNA. Then, the filter film was washed, followed by digoxigenin antibody detection for HBV DNA. […]

HepG 2.2.15 cells = assay: Cytotoxicity in HepG 2.2.15 cells (cell morphology by microscope after 8 days, Reed & Muench); type: cell-based; settings: pathological change of cells after 8 days
Method: as §1, §2, §3
Prior to collection of the supernatant for determination of the antiviral effect, the cytotoxicity variation of HepG 2.2.15 cells was investigated by using optical microscopic technique or biochemical test method (e.g., Alamar Blue dyeing or Trypan Blue dyeing).
The substance-induced change in cytotoxicity in HepG 2.2.15 cells or change in inhibition of the cells could be determined by using, e.g., optical microscopic technique, and expressed by the change of cell morphology. Such substance-induced change, e.g., cell lysis, vacuolus formation or change in cell morphology, in HepG 2.2.15 cells was apparent as compared with the untreated cells. Taking the observed pathological change of cells as index, the pathological change of cells was observed under microscope after 8 days, a complete destroy being indicated as 4; 75% being indicated as 3; 50% being indicated as 2; 25% being indicated as 1; and no pathological change being indicated as 0. The average extents of pathological change of cells and the suppression percentages at various concentrations were calculated. According to Reed & Muench method, a half toxic concentration (TC50) and a maximum non-toxic concentration (TC0) were calculated.
TC50 refers to the concentration of the compound of the present invention when 50% of cells have a similar morphology to the corresponding cells as a control.

SMILES: CCOC(=O)C1=C(C)NC(c2c(F)cc(F)cc2F)=N[C@H]1c1ccc(F)cc1Cl [Example 5, (R)-4-(2-chloro-4-fluorophenyl)-6-methyl-2-(2,4,6-trifluorophenyl)-1,4-dihydropyrimidin-5-ethylcarboxylate]
IC50 (HBV DNA): 1300 nM | TD50 (HepG 2.2.15 cells): 13.8 µM | melting point: 162 to 165 °C

SMILES: CC1=C(C(=O)OCC(F)(F)F)[C@H](c2ccc(F)cc2Cl)N=C(c2nccs2)N1 [Example 3, (R)-4-(2-chloro-4-fluorophenyl)-6-methyl-2-(2-thiazolyl)-1,4-dihydropyrimidin-5-trifluoroethylcarboxylate]
IC50 (HBV DNA): 5100 nM | TD50 (HepG 2.2.15 cells): 37.4 µM

melting point: 224 to 226 °C
SMILES: CC1=C(C(=O)N[C@H](C)c2ccccc2)[C@H](c2ccc(F)cc2Cl)N=C(c2nccs2)N1

SMILES: CCOC(=O)C1=C(C)NC(c2nccs2)=N[C@H]1c1ccc(F)cc1Cl [Example 2, (R)-4-(2-chloro-4-fluorophenyl)-6-methyl-2-(2-thiazolyl)-1,4-dihydropyrimidin-5-ethylcarboxylate]
IC50 (HBV DNA): < 800 nM | TD50 (HepG 2.2.15 cells): >62.9 µM

SMILES: CCOC(=O)C1=C(C)NC(c2cncs2)=N[C@H]1c1ccc(F)cc1Cl [Example 7, (R)-4-(2-chloro-4-fluorophenyl)-6-methyl-2-(5-thiazolyl)-1,4-dihydropyrimidin-5-ethylcarboxylate]
IC50 (HBV DNA): 1800 nM | TD50 (HepG 2.2.15 cells): >12.5 µM
